Experimental data taken from US20210347709A1, “RADIOFLUORINATED GPC3-BINDING PEPTIDES FOR PET IMAGING OF HEPATOCELLULAR CARCINOMA” (University of Southern California, priority 2020, published 2021).

Legend:
Assay type in all cases: in vivo, nude mice
[1] = MicroPET/CT imaging and biodistribution, HepG2 tumor model; settings: both sexes, BALB/c nude, mouse, iv, 5.55 MBq, total radioactivity; for tissue to tissue ratio at 1 h / tissue to tissue ratio at 0.5 h / tissue to tissue ratio at 2 h: HepG2 (GPC3+) tumor bearing mice; for tissue to tissue ratio at 1 h / tissue uptake at 1 h: 60 min; for tissue to tissue ratio at 0.5 h / tissue uptake at 0.5 h: 30 min; for tissue to tissue ratio at 2 h / tissue uptake at 2 h: 120 min; for tissue uptake at 0.5 h / tissue uptake at 1 h / tissue uptake at 2 h: HepG2 (GPC3+) tumor model, PET
Protocol: (§1) MicroPET/CT Imaging and Biodistribution. MicroPET/CT scans were carried out using a Siemens Inveon PET/CT scanner (Siemens, Germany). Tumor-bearing mice (n=3/group) were intravenously injected with 5.55 MBq of Al[^18F]F-GP2076 or Al[^18F]F-GP2633 under isoflurane anesthesia. A ten-minute static PET scan for each animal was acquired at 30, 60, and 120 min after the injection. 3-Dimensional ordered subset expectation maximization (3D-OSEM) algorithm was used for the PET reconstruction, and CT was applied for attenuation correction. Detailed procedures for the microPET/CT imaging and biodistribution are provided in ESM.
(§2) All animal experiments were conducted according to the guideline of the Nanfang Hospital Animal Ethics Committee at the Southern Medical University. Male or female BALB/c nude mice (about 4-6 weeks old) were obtained from the Laboratory Animal Center at Southern Medical University. The HepG2 and McA-RH7777 HCC xenografts were established by subcutaneous injection of 1×10^6 tumor cells into the left shoulder of nude mice. The animals were used for in vivo studies when the tumors reached a size of 0.5-1 cm in diameter (4-6 weeks after inoculation).
(§3) Inveon Research Workplace (IRW) 3.0 software (Siemens, Germany) was used to measure the regions of interest (ROIs) determined by superimposing the ellipsoid volume of interest (VOI) on the target tissues. The radioactivity concentrations were measured by the mean pixel intensity within each VOI and converted to dose/ml using a calibration constant. Assuming the tissue density of 1 g/ml, the ROI was then converted to dose per gram and normalized as the percent injected dose per gram (% ID/g). Tumor-to-nontarget uptake ratios, including tumor-to-muscle (T/M), tumor-to-liver (T/L), and tumor-to-kidneys (T/K) ratios, were calculated by dividing the radioactivity uptake in tumor by that in the corresponding normal tissue or organ.

[2] = system: GPC3-positive HepG2 tumor; test: as above; settings: for Tumor-to-kidneys (T/K) uptake ratio / Tumor-to-liver (T/L) uptake ratio / Tumor-to-muscle (T/M) uptake ratio: HepG2 (GPC3+) tumor bearing mice; for Kidneys uptake / Liver uptake / Tumor uptake: HepG2 (GPC3+) tumor model; for Tumor uptake: decay-corrected
Protocol: as §1, §2, §3

[3] = MicroPET/CT imaging and biodistribution, McA-RH7777 tumor model; settings: both sexes, BALB/c nude, mouse, iv, 5.55 MBq, total radioactivity; for tissue to tissue ratio at 0.5 h / tissue to tissue ratio at 1 h / tissue to tissue ratio at 2 h: McA-RH7777 (GPC3−) tumor bearing mice; for tissue to tissue ratio at 0.5 h / tissue uptake at 0.5 h: 30 min; for tissue to tissue ratio at 1 h / tissue uptake at 1 h: 60 min; for tissue uptake at 0.5 h / tissue uptake at 1 h / tissue uptake at 2 h: McA-RH7777 (GPC3−) tumor model, PET; for tissue uptake at 2 h / tissue to tissue ratio at 2 h: 120 min
Protocol: as §1, §2, §3

[4] = system: GPC3-negative McA-RH7777 tumor; test: as above; settings: for Tumor-to-muscle (T/M) uptake ratio: McA-RH7777 (GPC3−) tumor bearing mice; for Kidneys uptake / Liver uptake / Tumor uptake: McA-RH7777 (GPC3−) tumor model, PET; for Tumor uptake: decay-corrected
Protocol: as §1, §2, §3

[5] = HepG2 tumor / liver, read-out: Tumor-to-liver (T/L) uptake ratio
[6] = HepG2 tumor / muscle, read-out: Tumor-to-muscle (T/M) uptake ratio
[7] = intestine, read-out: Intestinal uptake
[8] = decay-corrected, read-out: Tumor uptake
[9] = kidneys, read-out: Kidneys uptake
[10] = muscle, read-out: Muscle uptake
[11] = tumor / kidneys, read-out: Tumor-to-kidneys (T/K) uptake ratio
[12] = McA-RH7777 tumor / muscle, read-out: Tumor-to-muscle (T/M) uptake ratio
[13] = tumor / liver, read-out: Tumor-to-liver (T/L) uptake ratio

With `CC(C)C[C@H](NC(=O)[C@H](CCCNC(=N)N)NC(=O)[C@H](CC(N)=O)NC(=O)[C@H](CC(=O)O)NC(=O)[C@H](CCCNC(=N)N)NC(=O)CNC(=O)CNC(=O)CNC(=S)Nc1ccc(CC2CN(CC(=O)O)CCN(CC(=O)O)CCN2CC(=O)O)cc1)C(=O)N[C@@H](CC(N)=O)C(=O)N[C@H](C(=O)NCC(=O)NCC(=O)N[C@H](C(=O)N[C@@H](Cc1ccc(O)cc1)C(=O)N[C@@H](Cc1ccccc1)C(=O)N[C@@H](CC(C)C)C(=O)N[C@H](C(=O)N[C@H](C(=O)N[C@@H](CCCNC(=N)N)C(=O)N[C@@H](CCC(N)=O)C(=O)O)[C@@H](C)O)[C@@H](C)O)[C@@H](C)O)C(C)C` (single isomer, unassigned) [Al[^18F]F-GP2633] the tissue to tissue ratio at 1 h ([1]; HepG2 tumor / kidneys, read-out: Tumor-to-kidneys (T/K) uptake ratio) was 0.09 ± 0.01, the tissue to tissue ratio at 0.5 h [1, 5] was 1.77 ± 0.2 and the tissue to tissue ratio at 1 h [1, 5] was 2 ± 0.18. The tissue to tissue ratio at 2 h [1, 5] was 1.28 ± 0.25, the tissue to tissue ratio at 0.5 h [1, 6] was 9.11 ± 0.79 and the tissue to tissue ratio at 1 h [1, 6] was 12.2 ± 0.62. It also gave a tissue to tissue ratio at 2 h [1, 6] of 6.2 ± 1.8, a tissue uptake at 0.5 h ([1]; bone, read-out: Bone uptake) of 0.47 %ID/g and a tissue uptake at 1 h ([1]; bone, read-out: Bone uptake) of 0.43 %ID/g. It also gave a tissue uptake at 2 h ([1]; bone, read-out: Bone uptake) of 0.55 %ID/g, a tissue uptake at 0.5 h ([1]; brain, read-out: Brain uptake) of 0.1 %ID/g and a tissue uptake at 1 h ([1]; brain, read-out: Brain uptake) of 0.11 %ID/g. For the same compound, the tissue uptake at 2 h ([1]; brain, read-out: Brain uptake) was 0.22 %ID/g, the tissue uptake at 0.5 h ([1]; heart, read-out: Heart uptake) was 1.04 %ID/g and the tissue uptake at 1 h ([1]; heart, read-out: Heart uptake) was 0.91 %ID/g. For the same compound, the tissue uptake at 2 h ([1]; heart, read-out: Heart uptake) was 0.37 %ID/g, the tissue uptake at 0.5 h [1, 7] was 1.09 %ID/g and the tissue uptake at 1 h [1, 7] was 1.3 %ID/g. The tissue uptake at 2 h [1, 7] was 0.46 %ID/g, the tissue uptake at 0.5 h [1, 8] was 3.13 %ID/g and the tissue uptake at 1 h [1, 8] was 3.37 %ID/g. It also gave a tissue uptake at 2 h [1, 8] of 1.3 %ID/g, a tissue uptake at 0.5 h [1, 9] of 39.4 %ID/g and a tissue uptake at 1 h [1, 9] of 36.9 %ID/g. The tissue uptake at 2 h [1, 9] was 29.3 %ID/g, the tissue uptake at 0.5 h ([1]; liver, read-out: Liver uptake) was 1.8 %ID/g and the tissue uptake at 1 h ([1]; liver, read-out: Liver uptake) was 1.7 %ID/g. For the same compound, the tissue uptake at 2 h ([1]; liver, read-out: Liver uptake) was 1.04 %ID/g, the tissue uptake at 0.5 h ([1]; lung, read-out: Lung uptake) was 0.69 %ID/g and the tissue uptake at 1 h ([1]; lung, read-out: Lung uptake) was 0.59 %ID/g. For the same compound, the tissue uptake at 2 h ([1]; lung, read-out: Lung uptake) was 0.34 %ID/g, the tissue uptake at 0.5 h [1, 10] was 0.35 %ID/g and the tissue uptake at 1 h [1, 10] was 0.28 %ID/g. It also gave a tissue uptake at 2 h [1, 10] of 0.22 %ID/g, a tissue to tissue ratio at 0.5 h [1, 11] of 0.08 ± 0.01 and a tissue to tissue ratio at 2 h [1, 11] of 0.04 ± 0.01. The “Tumor-to-kidneys (T/K) uptake ratio” value ([2]; 30 min) was 0.08 ± 0.01, the “Tumor-to-liver (T/L) uptake ratio” value ([2]; 30 min) was 1.77 ±0.20 and the “Tumor-to-muscle (T/M) uptake ratio” value ([2]; 30 min) was 9.11±0.79. The “Tumor-to-kidneys (T/K) uptake ratio” value ([2]; 60 min) was 0.09±0.01, the “Tumor-to-liver (T/L) uptake ratio” value ([2]; 60 min) was 2.00±0.18 and the “Tumor-to-muscle (T/M) uptake ratio” value ([2]; 60 min) was 12.17±0.62. The “Tumor-to-kidneys (T/K) uptake ratio” value ([2]; 120 min) was 0.04 ± 0.01, the “Tumor-to-liver (T/L) uptake ratio” value ([2]; 120 min) was 1.28±0.25 and the “Tumor-to-muscle (T/M) uptake ratio” value ([2]; 120 min) was 6.20±1.80. For the same compound, the Kidneys uptake ([2]; 30 min, PET) was 39.40±0.98 % ID/g, the Liver uptake ([2]; 30 min, PET) was 1.80±0.36 % ID/g and the Tumor uptake ([2]; 30 min, PET) was 3.13±0.31 % ID/g. The Kidneys uptake ([2]; 60 min, PET) was 36.86±2.05 % ID/g, the Liver uptake ([2]; 60 min, PET) was 1.70±0.26 % ID/g and the Tumor uptake ([2]; 60 min, PET) was 3.37±0.35 % ID/g. It also gave a Kidneys uptake ([2]; 120 min, PET) of 29.27 ± 3.31 % ID/g, a Liver uptake ([2]; 120 min, PET) of 1.04 ± 0.20 % ID/g and a Tumor uptake ([2]; 120 min, PET) of 1.30±0.17 % ID/g. For the same compound, the “defluorination in vivo (from low bone uptake)” value ([2]; PET, bone uptake) was “did not occur”, the “clearance / excretion route from the mouse body” value ([2]; as visualized by PET images) was “predominantly through the renal system” and the tissue to tissue ratio at 0.5 h [3, 12] was 3.87 ± 1.97. It also gave a tissue to tissue ratio at 1 h [3, 12] of 6.2 ± 2.67, a tissue uptake at 0.5 h ([3]; bone, read-out: Bone uptake) of 1.04 %ID/g and a tissue uptake at 1 h ([3]; bone, read-out: Bone uptake) of 0.8 %ID/g. It also gave a tissue uptake at 2 h ([3]; bone, read-out: Bone uptake) of 0.56 %ID/g, a tissue uptake at 0.5 h ([3]; brain, read-out: Brain uptake) of 0.78 %ID/g and a tissue uptake at 1 h ([3]; brain, read-out: Brain uptake) of 0.31 %ID/g. It also gave a tissue uptake at 2 h ([3]; brain, read-out: Brain uptake) of 0.22 %ID/g, a tissue uptake at 0.5 h ([3]; heart, read-out: Heart uptake) of 1.4 %ID/g and a tissue uptake at 1 h ([3]; heart, read-out: Heart uptake) of 1 %ID/g. The tissue uptake at 2 h ([3]; heart, read-out: Heart uptake) was 0.47 %ID/g, the tissue uptake at 0.5 h [3, 7] was 1.43 %ID/g and the tissue uptake at 1 h [3, 7] was 1.03 %ID/g. It also gave a tissue uptake at 2 h [3, 7] of 0.65 %ID/g, a tissue uptake at 0.5 h [3, 8] of 1.75 %ID/g and a tissue uptake at 1 h [3, 8] of 1.64 %ID/g. For the same compound, the tissue uptake at 2 h [3, 8] was 0.66 %ID/g, the tissue uptake at 0.5 h [3, 9] was 37.5 %ID/g and the tissue uptake at 1 h [3, 9] was 35.4 %ID/g. It also gave a tissue uptake at 2 h [3, 9] of 25.7 %ID/g, a tissue uptake at 0.5 h ([3]; liver, read-out: Liver uptake) of 1.52 %ID/g and a tissue uptake at 1 h ([3]; liver, read-out: Liver uptake) of 1.33 %ID/g. For the same compound, the tissue uptake at 2 h ([3]; liver, read-out: Liver uptake) was 0.88 %ID/g, the tissue uptake at 0.5 h ([3]; lung, read-out: Lung uptake) was 0.93 %ID/g and the tissue uptake at 1 h ([3]; lung, read-out: Lung uptake) was 0.74 %ID/g. It also gave a tissue uptake at 2 h ([3]; lung, read-out: Lung uptake) of 0.49 %ID/g, a tissue uptake at 0.5 h [3, 10] of 0.53 %ID/g and a tissue uptake at 1 h [3, 10] of 0.31 %ID/g. The tissue uptake at 2 h [3, 10] was 0.2 %ID/g, the tissue to tissue ratio at 0.5 h [3, 11] was 0.05 ± 0.004 and the tissue to tissue ratio at 1 h [3, 11] was 0.05 ± 0.002. The tissue to tissue ratio at 2 h [3, 11] was 0.03 ± 0.004, the tissue to tissue ratio at 0.5 h [3, 13] was 1.15 ± 0.09 and the tissue to tissue ratio at 1 h [3, 13] was 1.23 ± 0.05. The tissue to tissue ratio at 2 h [3, 13] was 0.78 ± 0.16, the tissue to tissue ratio at 2 h ([3]; tumor / muscle, read-out: Tumor-to-muscle (T/M) uptake ratio) was 5.5 ± 3.65 and the “Tumor-to-muscle (T/M) uptake ratio” value ([4]; 30 min) was 3.87±1.97. For the same compound, the “Tumor-to-muscle (T/M) uptake ratio” value ([4]; 60 min) was 6.20±2.67, the Kidneys uptake ([4]; 30 min) was 37.47 ± 2.57 % ID/g and the Liver uptake ([4]; 30 min) was 1.52 ± 0.11 % ID/g. It also gave a Tumor uptake ([4]; 30 min) of 1.75±0.05 % ID/g, a Kidneys uptake ([4]; 60 min) of 35.40 ± 0.92 % ID/g and a Liver uptake ([4]; 60 min) of 1.33 ± 0.06 % ID/g. For the same compound, the Tumor uptake ([4]; 60 min) was 1.64±0.03 % ID/g, the Kidneys uptake ([4]; 120 min) was 25.70 ± 3.35 % ID/g and the Liver uptake ([4]; 120 min) was 0.88 ± 0.20 % ID/g. The Tumor uptake ([4]; 120 min) was 0.66±0.06 % ID/g.
